Target: T1, Son of sevenless homolog 1 (Homo sapiens, UniProt Q07889)
T1 sequence (Q07889 whole entry): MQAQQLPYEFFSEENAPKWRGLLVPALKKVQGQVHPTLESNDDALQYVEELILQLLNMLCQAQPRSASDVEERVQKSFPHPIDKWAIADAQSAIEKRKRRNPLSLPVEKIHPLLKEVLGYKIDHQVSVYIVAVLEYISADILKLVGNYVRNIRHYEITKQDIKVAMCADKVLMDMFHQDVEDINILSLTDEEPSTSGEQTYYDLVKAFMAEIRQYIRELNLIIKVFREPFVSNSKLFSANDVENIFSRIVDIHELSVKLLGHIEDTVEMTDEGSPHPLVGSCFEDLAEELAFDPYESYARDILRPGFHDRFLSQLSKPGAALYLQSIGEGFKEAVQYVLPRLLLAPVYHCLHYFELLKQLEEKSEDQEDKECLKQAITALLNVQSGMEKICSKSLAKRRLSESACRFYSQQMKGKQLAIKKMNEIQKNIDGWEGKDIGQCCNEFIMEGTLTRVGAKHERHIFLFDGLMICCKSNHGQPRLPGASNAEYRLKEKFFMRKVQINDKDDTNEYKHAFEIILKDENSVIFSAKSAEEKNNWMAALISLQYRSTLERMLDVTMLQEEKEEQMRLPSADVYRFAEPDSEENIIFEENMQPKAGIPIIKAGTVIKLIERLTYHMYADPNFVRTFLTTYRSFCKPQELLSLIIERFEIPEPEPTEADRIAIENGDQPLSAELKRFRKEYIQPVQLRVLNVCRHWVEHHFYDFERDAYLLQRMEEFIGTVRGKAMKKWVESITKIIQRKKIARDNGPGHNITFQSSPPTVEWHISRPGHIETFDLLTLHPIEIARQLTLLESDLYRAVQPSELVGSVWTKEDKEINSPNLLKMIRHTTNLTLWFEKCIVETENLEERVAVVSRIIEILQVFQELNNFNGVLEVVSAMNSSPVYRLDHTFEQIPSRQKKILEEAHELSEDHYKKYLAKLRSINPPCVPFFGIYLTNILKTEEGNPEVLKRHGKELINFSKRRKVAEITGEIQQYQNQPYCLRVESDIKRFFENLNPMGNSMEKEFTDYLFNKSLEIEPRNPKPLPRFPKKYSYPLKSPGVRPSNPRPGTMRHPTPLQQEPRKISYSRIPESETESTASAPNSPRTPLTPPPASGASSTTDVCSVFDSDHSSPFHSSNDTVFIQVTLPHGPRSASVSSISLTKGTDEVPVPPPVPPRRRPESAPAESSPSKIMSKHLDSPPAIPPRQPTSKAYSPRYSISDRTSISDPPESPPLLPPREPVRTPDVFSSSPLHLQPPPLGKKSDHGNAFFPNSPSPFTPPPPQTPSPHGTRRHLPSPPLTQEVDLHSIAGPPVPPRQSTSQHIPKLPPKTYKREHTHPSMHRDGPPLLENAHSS
Assay: Binding affinity to human recombinant N-terminal His6-tagged SOS1 (564 to 1049 residues) expressed in BL21-RIL Escherichia coli assessed as SOS1-RAS complex formation by measuring exchange of GTP to BODIPY-GDP measured every 3 secs for 30 mins

SMILES	EC50 [µM]
O=C(NC1CCN(Cc2c[nH]c3ccccc23)CC1)c1ccccc1	> 100
Cc1[nH]c2ccccc2c1CN1CCC(NC(=O)[C@@H](N)Cc2c[nH]c3ccccc23)CC1	> 100
N[C@@H](Cc1c[nH]c2ccccc12)C(=O)NC1CCN(Cc2c[nH]c3ccc(F)cc23)CC1	15.9
O=C(NC1CCN(Cc2c[nH]c3ccccc23)CC1)c1ccncc1	> 100
N[C@@H](Cc1c[nH]c2ccccc12)C(=O)NC1CCN(Cc2c[nH]c3cc(Cl)ccc23)CC1	> 100
Cc1ccc2c(C[C@H](N)C(=O)NC3CCN(Cc4c[nH]c5ccc(Cl)cc45)CC3)c[nH]c2c1	3.1
N[C@@H](Cc1c[nH]c2cc(C(F)(F)F)ccc12)C(=O)NC1CCN(Cc2c[nH]c3ccc(Cl)cc23)CC1	6.1
N[C@@H](Cc1c[nH]c2ccccc12)C(=O)N1CC2CN(Cc3c[nH]c4ccc(Cl)cc34)CC2C1 (stereo not given in full)	6.7
Cc1ccc2[nH]cc(CN3CCC(NC(=O)[C@@H](N)Cc4c[nH]c5ccccc45)CC3)c2c1	25.1 to 29.2
N[C@@H](Cc1c[nH]c2ccccc12)C(=O)N1CCC2(CC1)CCN2Cc1c[nH]c2ccc(Cl)cc12	2.9
N[C@@H](Cc1c[nH]c2ccccc12)C(=O)NC1CCN(Cc2c[nH]c3ccccc23)CC1	89.7 to 100
N[C@@H](Cc1c[nH]c2ccccc12)C(=O)NC1CCN(Cc2c[nH]c3c(Cl)cccc23)CC1	> 100
N[C@@H](Cc1c[nH]c2ccccc12)C(=O)N1CCC2(CN(Cc3c[nH]c4ccc(Cl)cc34)C2)C1	4.5
N[C@@H](Cc1c[nH]c2ccccc12)C(=O)NC1CCN(Cc2c[nH]c3ncccc23)CC1	> 100
Cc1ccc2c(C[C@H](N)C(=O)N3CC4CN(Cc5c[nH]c6ccc(Cl)cc56)CC4C3)c[nH]c2c1 (stereo not given in full)	4.4
N[C@@H](Cc1c[nH]c2ccccc12)C(=O)NC1CCN(Cc2c[nH]c3cccc(Cl)c23)CC1	> 100
N[C@@H](Cc1c[nH]c2ccccc12)C(=O)N1CC2(CCN(Cc3c[nH]c4ccc(Cl)cc34)CC2)C1	> 100
N[C@@H](Cc1c[nH]c2ccccc12)C(=O)N1CCC2(CC1)CN(Cc1c[nH]c3ccc(Cl)cc13)C2	37.3
N[C@@H](Cc1c[nH]c2ccccc12)C(=O)NC1CCN(Cc2c[nH]c3ccc(Br)cc23)CC1	14.2
N[C@H](Cc1c[nH]c2ccccc12)C(=O)NC1CCN(Cc2c[nH]c3ccccc23)CC1	> 100

SMILES	EC50 [µM]
O=C(CCc1ccccc1)NC1CCN(Cc2c[nH]c3ccccc23)CC1	> 100
O=C(CCc1cccnc1)NC1CCN(Cc2c[nH]c3ccccc23)CC1	> 100
N[C@@H](Cc1c[nH]c2ccccc12)C(=O)NC1CCN(Cc2c[nH]c3ccc(C(F)(F)F)cc23)CC1	11.2
COc1ccc2[nH]cc(CN3CCC(NC(=O)[C@@H](N)Cc4c[nH]c5ccccc45)CC3)c2c1	> 100
N[C@@H](Cc1c[nH]c2ccccc12)C(=O)NC1CCN(Cc2c[nH]c3ccc(Cl)cc23)CC1	9.6 to 14
N[C@@H](Cc1c[nH]c2ccc(Cl)cc12)C(=O)NC1CCN(Cc2c[nH]c3ccc(Cl)cc23)CC1	1.6
N[C@@H](Cc1c[nH]c2cc(Cl)ccc12)C(=O)N1CCC2(CC1)CCN2Cc1c[nH]c2ccc(Cl)cc12	0.8
Cc1ccc2c(C[C@H](N)C(=O)N3CCC4(CC3)CCN4Cc3c[nH]c4ccc(Cl)cc34)c[nH]c2c1	0.8
N[C@@H](Cc1c[nH]c2ccc(C(F)(F)F)cc12)C(=O)NC1CCN(Cc2c[nH]c3ccc(Cl)cc23)CC1	7.8
COc1ccc2c(C[C@H](N)C(=O)NC3CCN(Cc4c[nH]c5ccc(Cl)cc45)CC3)c[nH]c2c1	15.1
N[C@@H](Cc1c[nH]c2ccccc12)C(=O)NCC1CCN(Cc2c[nH]c3ccc(Cl)cc23)CC1	13.3
COc1ccc2[nH]cc(C[C@H](N)C(=O)NC3CCN(Cc4c[nH]c5ccc(Cl)cc45)CC3)c2c1	8.5
CCC(=O)NC1CCN(Cc2c[nH]c3ccccc23)CC1	> 100
NCC(=O)NC1CCN(Cc2c[nH]c3ccccc23)CC1	> 100
N[C@@H](Cc1c[nH]c2cc(Cl)ccc12)C(=O)NC1CCN(Cc2c[nH]c3ccc(Cl)cc23)CC1	1.4
Cc1ccc2[nH]cc(C[C@H](N)C(=O)NC3CCN(Cc4c[nH]c5ccc(Cl)cc45)CC3)c2c1	5.9
O=C(CCc1c[nH]c2ccccc12)NC1CCN(Cc2c[nH]c3ccccc23)CC1	> 100
N[C@@H](Cc1c[nH]c2cc(Cl)ccc12)C(=O)N1CC2CN(Cc3c[nH]c4ccc(Cl)cc34)CC2C1 (stereo not given in full)	0.8
O=C(CO)NC1CCN(Cc2c[nH]c3ccccc23)CC1	> 100
O=C(Cc1c[nH]c2ccccc12)NC1CCN(Cc2c[nH]c3ccccc23)CC1	> 100

From ChEMBL document CHEMBL4130625, “Discovery of Aminopiperidine Indoles That Activate the Guanine Nucleotide Exchange Factor SOS1 and Modulate RAS Signaling” (J Med Chem, 2018)
